In patent EP3173421A1, “PEPTIDIC COMPOUNDS USEFUL AS ANTIBACTERIAL AGENTS” (Universitat de Barcelona, priority 2015, dated 2017):
In brackets after ≈: the same amount, converted by molar mass. Read-outs that look alike come from different tables or passages of the source. Marks after values point to notes of the source that are not given here. Where a SMILES comes first, the peptide text is derived from it. Bridges are numbered along the chain shown (N, C = ends). Where no end group is shown, it is not given here. [ ]: non-standard residue; d: D form. The star is where a group is joined. ξ: configuration not given here. dAoc(2) = CCCCCC[C@@H](N)C(=O)O; ξLac(3-iPr) = CC(C)CC(O)C(=O)O; Decanoyl = CCCCCCCCCC(=O)*; Nonanoyl = CCCCCCCCC(=O)*; Heptanoyl = CCCCCCC(=O)*; Nle = CCCC[C@H](N)C(=O)O; Octanoyl = CCCCCCCC(=O)*; Dab = NCC[C@H](N)C(=O)O; Hexanoyl = CCCCCC(=O)*

What was measured:
Escherichia coli VAL 10 = assay type: cell-based
Excerpt: (§1) E. coli strains: NDM-1 (multidrug resistant strain) and VAL10, VAL5 and MAC21 strains show intermediante resistance to quinolones

Escherichia coli MAC21a = assay type: cell-based
Excerpt: as §1

Escherichia coli VAL 5 = assay type: cell-based
Excerpt: as §1

Escherichia coli NDM-1 = assay type: cell-based
Excerpt: as §1

[1] = tested on: Pseudomonas aeruginosa 36a; assay type: cell-based
Protocol: (§7) For resistant and multi-drug resistant bacteria Gram negative bacteria, the test was essentially the same with slight changes in the amounts used: samples of a final volume of 100µL were prepared as follows: aliquots (50 µL) of a suspension containing bacteria at a concentration of 1.5x10^6 colony-forming units/mL in culture medium (MH, Muller Hinton Broth, Difco, USA), adjusted at pH 7.4, were added to 100µL of solution containing the peptide prepared from a stock solution of 1024 mg/L peptide in water in serial 2-fold dilutions in MH broth adjusted to pH 7.4

[2] = tested on: Colistin-resistant A. baumannii CR49; assay type: cell-based
Protocol: as §7

[3] = tested on: Pseudomonas aeruginosa 38a; assay type: cell-based
Protocol: as §7

[4] = tested on: Colistin-resistant A. baumannii Ab99; assay type: cell-based
Protocol: as §7

[5] = tested on: Pseudomonas aeruginosa ATCC 9027; assay type: cell-based
Excerpt: (§2) Bacterial strains used for the antibacterial activity tests were obtained from the American Type Culture Collection (ATCC, Rockville, MD, USA): • Non resistant Gram-negative bacterias: • Escherichia coli ATCC 8739 • Pseudomonas aeruginosa ATCC 9027 • Non resistant Gram-positive bacteria: • Staphylococcus aureus ATTC6538

[6] = tested on: Staphylococcus aureus ATTC6538; assay type: cell-based
Excerpt: as §2

[7] = tested on: Escherichia coli ATCC 8739; assay type: cell-based
Excerpt: as §2

[8] = tested on: Pseudomonas aeruginosa 12R; assay type: cell-based; settings: P. aeruginosa 12R
Protocol: as §7
(§8) Samples of resistant and multi-drug resistant bacteria were from clinical origin and not standardized: • Resistant Gram-negative bacterias used: • Escherichia coli VAL 5 • Escherichia coli VAL 10 • Escherichia coli MAC21a • Escherichia coli NDM-1 • Pseudomonas aeruginosa 36a • Pseudomonas aeruginosa 38a • Pseudomonas aeruginosa 21 R • Pseudomonas aeruginosa 21 S • Pseudomonas aeruginosa 12R • Pseudomonas aeruginosa 12S • Colistin-resistant A. baumannii CR49 • Colistin-resistant A. baumannii Ab99 […]

[9] = tested on: Pseudomonas aeruginosa 21 S; settings: P. aeruginosa 21S
Protocol: (§3) The antibacterial activity of the lipopeptides was measured in sterile 96-well plates (Corning Costar 3598 microtiter plates). Samples of a final volume of 200µL were prepared as follows: aliquots (100 µL) of a suspension containing bacteria at a concentration of 10^5 colony-forming units/mL in culture medium (MH, Muller Hinton Broth, Difco, USA), adjusted at pH 7.4, were added to 100µL of solution containing the peptide prepared from a stock solution of 1 mg/mL peptide in water in serial 2-fold dilutions in MH broth adjusted to pH 7.4 (Jorgensen and Turnide, 2003). Inhibition of bacterial growth was determined by measuring the absorbance at 492 nm with a Absorbance Microplate reader ELx 800 (Bio-tek Instruments) after an incubation of 18-20 h at 37°C. Antibacterial activities are expressed as the MIC, the concentration at which no growth is observed after 18-20 h of incubation. Microorganisms were cultured on Tryptycase Soy Broth (Pronadisa, Barcelona) and incubated at 37°C until growth. Then a loopfull was streaked on Trypticase Soy Agar (Pronadisa, Barcelona) and incubated at 37°C until colony formation occurs. Microorganisms were preserved on cryobilles (EAS laboratoire, France) at -20°C.
(§4) For resistant and multi-drug resistant bacteria Gram negative bacteria, the test was essentially the same with slight changes in the amounts used: samples of a final volume of 100µL were prepared as follows: aliquots (50 µL) of a suspension containing bacteria at a concentration of 1.5x10^6 colony-forming units/mL in culture medium (MH, Muller Hinton Broth, Difco, USA), adjusted at pH 7.4, were added to […] of solution containing the peptide prepared from a stock solution of 1024 mg/L peptide in water in serial 2-fold dilutions in MH broth adjusted to pH 7.4
(§5) Samples of resistant and multi-drug resistant bacteria were from clinical origin and not standardized: • Resistant Gram-negative bacterias used: • Escherichia coli VAL 5 • Escherichia coli VAL 10 • Escherichia coli MAC21a • Escherichia coli NDM-1 • Pseudomonas aeruginosa 36a • Pseudomonas aeruginosa 38a • Pseudomonas aeruginosa 21 R • Pseudomonas aeruginosa 21 S • Pseudomonas aeruginosa 12R • Pseudomonas aeruginosa 12S • Colistin-resistant A. baumannii CR49 • Colistin-resistant A. baumannii Ab99
(§6) P. aeruginosa strains are highly-resistant: For instance, 38a and 36a are resistant to Ceftazidime, Ciprofloxacin, Imipenem, Piperacillin-tazobactam; 21S is resistant to Ceftazidime, Ciprofloxacin, Imipenem, Piperacillin-tazobactam and tobramycin; 21 R is resistant to Ciprofloxacin, tobramycin and colistin; 12S is resistant to cefotoxin, piperacillin/tazobactam, aztreonam, gentamicin and amikacin; and 12R is resistant to ceftazidime, cefotoxin,cefepime, piperacillin/tazobactam, aztreonam,imipenem, gentamicin, amikacin and colistin.

[10] = tested on: Pseudomonas aeruginosa 21 R; settings: P. aeruginosa 21R
Protocol: as §3, §4, §5, §6

[11] = tested on: Pseudomonas aeruginosa 12S; assay type: cell-based; settings: P. aeruginosa 12S
Protocol: as §7, §8

[12] = tested on: Escherichia coli ATCC 8739; settings: E coli ATCC8739 (non-resistant); comparative examples, extracted from Rabanal et al. 2015; cited from earlier work
[13] = tested on: Staphylococcus aureus ATTC6538; settings: S. aureus ATTC6538; comparative examples, extracted from Rabanal et al. 2015; cited from earlier work
[14] = tested on: Pseudomonas aeruginosa ATCC 9027; settings: P. aeruginosa ATTC9027 (non-resistant); comparative examples, extracted from Rabanal et al. 2015; cited from earlier work

Row | Compound | MIC (Escherichia coli VAL 10) | MIC (Escherichia coli MAC21a) | MIC (Escherichia coli VAL 5) | MIC (Escherichia coli NDM-1) | MIC ([1]; 36a) | MIC [2] | MIC ([3]; 38a) | MIC [4] | MIC ([5]; ATCC 9027) | MIC [6] | MIC [7] | MIC [8] | MIC [9] | MIC [10] | MIC [11] | also measured
1 | CCCCCCC(=O)N[C@@H](Cc1c[nH]cn1)C(=O)N[C@H](C(=O)N[C@@H](CCN)C(=O)N[C@H]1CSSC[C@H](C(N)=O)NC(=O)[C@H](Cc2c[nH]cn2)NC(=O)[C@H](CCN)NC(=O)[C@H](CCCC)NC(=O)[C@@H](CCCCCC)NC(=O)[C@H](CCN)NC1=O)[C@@H](C)O [Example 6] (Heptanoyl-HT[Dab]C[Dab][dAoc(2)][Nle][Dab]H[dC]-NH2; disulfide 4-10) | 16 µg/mL (≈ 12.7 µM) | 8 µg/mL (≈ 6.33 µM) | 8 µg/mL (≈ 6.33 µM) | 8 µg/mL (≈ 6.33 µM) | 1 µg/mL (≈ 0.791 µM) | 4 µg/mL (≈ 3.17 µM) | 32 µg/mL (≈ 25.3 µM) | 32 µg/mL (≈ 25.3 µM) | 1 µg/mL (≈ 0.791 µM) | 16 µg/mL (≈ 12.7 µM) | 4 µg/mL (≈ 3.17 µM) |  |  |  |  | 
2 | CCCCCC[C@@H](N)C(=O)N[C@H](C(=O)N[C@@H](CCN)C(=O)N[C@H]1CSSC[C@H](C(N)=O)NC(=O)[C@H](CCN)NC(=O)[C@H](CCN)NC(=O)C(CC(C)C)OC(=O)[C@@H](CCCCCC)NC(=O)[C@H](CCN)NC1=O)[C@@H](C)O (stereo partly drawn) [Example 3, DAoc-Thr-Dab-cyclo(S-S)[Cys-Dab-DAoc-OLe-Dab-Dab-DCys]] (H-[dAoc(2)]T[Dab]C[Dab][dAoc(2)][ξLac(3-iPr)][Dab][Dab][dC]-NH2; disulfide 4-10) | 16 µg/mL (≈ 14.3 µM) | 8 µg/mL (≈ 7.15 µM) | 2 µg/mL (≈ 1.79 µM) | 2 µg/mL (≈ 1.79 µM) | 0.5 µg/mL (≈ 0.447 µM) | 8 µg/mL (≈ 7.15 µM) | 4 µg/mL (≈ 3.57 µM) | 8 µg/mL (≈ 7.15 µM) | 0.25 µg/mL (≈ 0.223 µM) |  | 2 µg/mL (≈ 1.79 µM) | 0.25 µg/mL (≈ 0.223 µM) | 0.25 µg/mL (≈ 0.223 µM) | 0.125 µg/mL (≈ 0.112 µM) | 0.5 µg/mL (≈ 0.447 µM) | 
3 | CCCCCCCC(=O)N[C@@H](CCN)C(=O)N[C@H](C(=O)N[C@@H](CCN)C(=O)N[C@H]1CSSC[C@H](C(N)=O)NC(=O)[C@H](CCN)NC(=O)[C@H](CCN)NC(=O)C(CC(C)C)OC(=O)[C@@H](CCCCCC)NC(=O)[C@H](CCN)NC1=O)[C@@H](C)O (stereo partly drawn) [Example 4, octanoyl-Dab-Thr-Dab-cyclo(S-S)[Cys-Dab-DAoc-OLe-Dab-Dab-DCys]] (Octanoyl-[Dab]T[Dab]C[Dab][dAoc(2)][ξLac(3-iPr)][Dab][Dab][dC]-NH2; disulfide 4-10) | 8 µg/mL (≈ 6.64 µM) | 8 µg/mL (≈ 6.64 µM) | 1 µg/mL (≈ 0.83 µM) | 1 µg/mL (≈ 0.83 µM) |  | 16 µg/mL (≈ 13.3 µM) |  | 8 µg/mL (≈ 6.64 µM) | 0.25 µg/mL (≈ 0.208 µM) |  | 1 µg/mL (≈ 0.83 µM) | 0.25 µg/mL (≈ 0.208 µM) | 0.25 µg/mL (≈ 0.208 µM) | 2 µg/mL (≈ 1.66 µM) | 0.125 µg/mL (≈ 0.104 µM) | MIC ([1]; P. aeruginosa 36a): 0.125 µg/mL (≈ 0.104 µM); MIC ([3]; P. aeruginosa 38a): 0.125 µg/mL (≈ 0.104 µM)
4 | Decanoyl-[Dab]T[Dab]C[Dab][dF]L[Dab][Dab][dC] (cysteine pairing not given here) [Comparative Example 8b] |  |  |  |  |  |  |  |  |  |  |  |  |  |  |  | MIC [12]: 2 µg/mL; MIC [13]: 8 µg/mL; MIC [14]: 4 µg/mL
5 | CCCCCCC(=O)N[C@@H](CCN)C(=O)N[C@H](C(=O)N[C@@H](CCN)C(=O)N[C@H]1CSSC[C@H](C(N)=O)NC(=O)[C@H](CCN)NC(=O)[C@H](CCN)NC(=O)[C@H](CCCC)NC(=O)[C@@H](CCCCCC)NC(=O)[C@H](CCN)NC1=O)[C@@H](C)O [Example 1, heptanoyl-Dab-Thr-Dab-cyclo(S-S)[Cys-Dab-DAoc-Nle-Dab-Dab-DCys]] (Heptanoyl-[Dab]T[Dab]C[Dab][dAoc(2)][Nle][Dab][Dab][dC]-NH2; disulfide 4-10) | 1 µg/mL (≈ 0.841 µM) | <0.5 µg/mL | 1 µg/mL (≈ 0.841 µM) | ≤ 0.5 µg/mL | 0.06 µg/mL (≈ 0.0504 µM) |  | 0.03 µg/mL (≈ 0.0252 µM) |  | 0.5 µg/mL (≈ 0.42 µM) | 16 µg/mL (≈ 13.5 µM) | 0.5 to 1 µg/mL | 1 µg/mL (≈ 0.841 µM) | 0.03 µg/mL (≈ 0.0252 µM) | 0.25 µg/mL (≈ 0.21 µM) | 0.5 µg/mL (≈ 0.42 µM) | 
6 | CCCCCC[C@H]1NC(=O)[C@H](CCN)NC(=O)[C@@H](NC(=O)[C@H](CCN)NC(=O)[C@@H](NC(=O)[C@H](CCN)NC(=O)CCCCC)[C@@H](C)O)CSSC[C@H](C(N)=O)NC(=O)[C@H](CCN)NC(=O)[C@H](CCN)NC(=O)C(CC(C)C)OC1=O (stereo partly drawn) [Example 5, hexanoyl-Dab-Thr-Dab-cyclo(S-S)[Cys-Dab-DAoc-OLe-Dab-Dab-DCys]] (Hexanoyl-[Dab]T[Dab]C[Dab][dAoc(2)][ξLac(3-iPr)][Dab][Dab][dC]-NH2; disulfide 4-10) |  |  |  |  |  |  |  |  | <0.25 µg/mL | 32 µg/mL (≈ 27.2 µM) | 2 to 4 µg/mL |  |  |  |  | 
7 | Nonanoyl-[Dab]T[Dab]C[Dab][dF]L[Dab][Dab]C (cysteine pairing not given here) [Comparative Example 8a] |  |  |  |  |  |  |  |  |  |  |  |  |  |  |  | MIC [12]: 4 µg/mL; MIC [13]: >32 µg/mL; MIC [14]: 8 µg/mL
8 | CCCCCC[C@H]1NC(=O)[C@H](CCN)NC(=O)[C@@H](NC(=O)[C@H](CCN)NC(=O)[C@@H](NC(=O)[C@H](CCN)NC(=O)CCCCC)[C@@H](C)O)CSSC[C@H](C(N)=O)NC(=O)[C@H](CCN)NC(=O)[C@H](CCN)NC(=O)[C@H](CCCC)NC1=O [Example 7, hexanoyl-Dab-Thr-Dab-cyclo(S-S)[Cys-Dab-DAoc-Nle-Dab-Dab-DCys]] (Hexanoyl-[Dab]T[Dab]C[Dab][dAoc(2)][Nle][Dab][Dab][dC]-NH2; disulfide 4-10) |  |  |  |  |  |  |  |  |  | >32 µg/mL | 8 µg/mL (≈ 6.81 µM) |  |  |  |  | MIC ([5]; P. aeruginosa ATTC9027 (non-resistant)): 1-2* µg/ml
9 | CCCCCCC(=O)N[C@@H](CCN)C(=O)N[C@H](C(=O)N[C@@H](CCN)C(=O)N[C@H]1CSSC[C@H](C(N)=O)NC(=O)[C@H](CCN)NC(=O)[C@H](CCN)NC(=O)C(CC(C)C)OC(=O)[C@@H](CCCCCC)NC(=O)[C@H](CCN)NC1=O)[C@@H](C)O (stereo partly drawn) [Example 2, heptanoyl-Dab-Thr-Dab-cyclo(S-S)[Cys-Dab-DAoc-OLe-Dab-Dab-DCyc]] (Heptanoyl-[Dab]T[Dab]C[Dab][dAoc(2)][ξLac(3-iPr)][Dab][Dab][dC]-NH2; disulfide 4-10) | 32 µg/mL (≈ 26.9 µM) | 8 µg/mL (≈ 6.72 µM) | 1 µg/mL (≈ 0.84 µM) | 1 µg/mL (≈ 0.84 µM) | 1 µg/mL (≈ 0.84 µM) | 16 µg/mL (≈ 13.4 µM) | 0.125 µg/mL (≈ 0.105 µM) | 16 µg/mL (≈ 13.4 µM) | 1 to 2 µg/mL | 64 µg/mL (≈ 53.8 µM) | 4 µg/mL (≈ 3.36 µM) | 0.25 µg/mL (≈ 0.21 µM) | 0.25 µg/mL (≈ 0.21 µM) | 2 µg/mL (≈ 1.68 µM) | 0.25 µg/mL (≈ 0.21 µM) | 
